In one experiment the target is T1, H-2 K^d (Mus musculus, UniProt P01902).
T1 sequence (P01902 22-368): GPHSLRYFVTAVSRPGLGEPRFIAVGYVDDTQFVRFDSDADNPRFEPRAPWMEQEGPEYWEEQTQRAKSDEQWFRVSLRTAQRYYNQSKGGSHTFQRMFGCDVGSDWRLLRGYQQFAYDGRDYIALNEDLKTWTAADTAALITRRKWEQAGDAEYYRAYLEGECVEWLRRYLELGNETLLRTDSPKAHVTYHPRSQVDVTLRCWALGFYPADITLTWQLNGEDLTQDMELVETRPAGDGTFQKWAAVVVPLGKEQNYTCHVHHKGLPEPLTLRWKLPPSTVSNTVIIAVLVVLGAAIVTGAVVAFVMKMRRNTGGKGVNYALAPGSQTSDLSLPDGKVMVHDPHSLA
T1 sequence (P01887 21-119 partner): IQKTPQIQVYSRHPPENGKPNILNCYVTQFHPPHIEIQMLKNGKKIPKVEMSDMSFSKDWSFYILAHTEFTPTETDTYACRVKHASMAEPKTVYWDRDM
As to the kind of experiment: Binding assays: inhibition of binding of a radiolabeled standard peptide to purified MHC molecules. As for the experimental part:
Binding assays. Binding of peptides to H-2 K^d was determined using quantitative assays based on the inhibition of binding of a radiolabeled standard peptide to purified MHC molecules essentially as described previously. […] Under the conditions utilized, where [label]<[MHC] and IC50≥[MHC], the measured IC50 values are reasonable approximations of the dissociation constant values.

A further experiment deals with CD8+ cells. Description: IFNγ ELISPOT on CD8+ cells of immunized mice. The following applies: for ELISpot: mice immunized with mutant peptide; for CD8 T cell response of immunized mice: ELISPOT. The experiment is classed as in vivo, BALB/c mice. As for the experimental part: For the ELISPOT assays, the negative controls were CD8+ cells from immunized mice without peptide stimulation. […] The magnitude of responses was rated by mean spot numbers per million CD8+ cells: 5-10 (+); 11-20 (++); 21-50 (+++); 51-100(++++) and >100(+++++).
All 18 peptides were used to immunize BALB/c mice. The draining lymph nodes (dLNs) of immunized mice were harvested one week after the single immunization, and the cells were stimulated in vitro for 16 h without any added peptide, the mutant peptide used for immunization, or the corresponding wild type peptide. The CD8+ cells were analyzed for activation (CD44+) and effector function (intracellular IFNγ+). (see Materials and Methods regarding the details of FACS analysis.) All possible patterns of immune-reactivity were observed (FIG. 3A): no immune response (12/18), a mutant peptide-specific, i.e. tumor-specific immune response (5/18), and a cross-reactive response between the mutant and corresponding wild type peptides (1/18).

Where [1] appears, read: mutant peptide, read-out: Measured IC50 for K^d (Mut/WT): Mut.
Setting [2] is: WT counterpart peptide, read-out: Measured IC50 for K^d (Mut/WT): WT.

Each structure is given as a SMILES string. “Also recorded” adds a separate entry of the source. Where two headings read alike, the source gives them in different places. Peptide text beside a SMILES is read from it.

Consider `CC(C)C[C@H](NC(=O)CNC(=O)[C@H](CC(C)C)NC(=O)[C@H](CC(C)C)NC(=O)[C@H](CO)NC(=O)[C@H](CCCNC(=N)N)NC(=O)[C@H](CCCNC(=N)N)NC(=O)[C@H](CO)NC(=O)[C@H](CO)NC(=O)[C@H](Cc1c[nH]c2ccccc12)NC(=O)[C@@H](N)CO)C(=O)O` [9430016H08Rik] (H-SWSSRRSLLGL-OH), for which, on H-2 K^d (WT counterpart peptide, read-out: Measured IC50 for K^d (Mut/WT): WT, class symbol), the IC50 was above 70 µM.
Take `CSCC[C@H](NC(=O)[C@@H]1CCCN1C(=O)[C@@H](NC(=O)[C@H](Cc1ccc(O)cc1)NC(=O)[C@@H](N)CC(=O)O)C(C)C)C(=O)N[C@@H](CCC(=O)O)C(=O)N[C@@H](CCC(N)=O)C(=O)N1CCC[C@H]1C(=O)O` [Alkbh6.1, D(y/D)VPMEQP] (H-DYVPMEQP-OH): the IC50 at H-2 K^d was above 70 µM; at H-2 K^d (setting [1]) it was 60.9 µM.
As for `CSCC[C@H](NC(=O)[C@@H]1CCCN1C(=O)[C@@H](NC(=O)[C@H](Cc1ccc(O)cc1)NC(=O)[C@@H](N)CC(=O)O)C(C)C)C(=O)N[C@@H](CCC(=O)O)C(=O)N[C@@H](CCC(N)=O)C(=O)N1CCC[C@H]1C(=O)N[C@@H](CCCNC(=N)N)C(=O)N1CCC[C@H]1C(=O)O` [Alkbh6.3] (H-DYVPMEQPRP-OH; N-terminus and C-terminus assumed), the IC50 at H-2 K^d (setting [2]) came out at 23.6 µM.
Consider `CC(C)C[C@H](NC(=O)[C@H](CCC(=O)O)NC(=O)[C@H](Cc1c[nH]c2ccccc12)NC(=O)[C@H](CS)NC(=O)[C@@H](NC(=O)[C@H](CCC(=O)O)NC(=O)[C@H](CS)NC(=O)[C@H](Cc1ccc(O)cc1)NC(=O)[C@H](C)N)[C@@H](C)O)C(=O)O` [Apc] (H-AYCETCWEL-OH), for which, at H-2 K^d (setting [2]), the IC50 turned out to be 0.06 µM. For the same compound, the ELISpot result with CD8+ cells is given as “+++++ (>100 spots/106 CD8 = +++++)”.
In the case of `CSCC[C@H](NC(=O)[C@H](CC(C)C)NC(=O)CNC(=O)[C@@H]1CCCN1C(=O)[C@H](Cc1ccccc1)NC(=O)[C@@H](N)C(C)C)C(=O)N[C@@H](CCC(=O)O)C(=O)N[C@@H](CC(C)C)C(=O)O` [Atxn10.2, VFPGLME(l/R)] (H-VFPGLMEL-OH; N-terminus and C-terminus assumed), at H-2 K^d (setting [2]), the IC50 was 1.11 µM. The “CD8 T cell response of immunized mice” value in the experiment on CD8+ cells (text) was “did not elicit a detectable response at all”; in the experiment on CD8+ cells (text, listed as Atxn 10.2) it was “did not elicit a detectable CD8 response”.
As for `CC(C)C[C@H](NC(=O)[C@H](CCC(=O)O)NC(=O)[C@H](CC(=O)O)NC(=O)[C@H](CCC(=O)O)NC(=O)[C@H](CC(C)C)NC(=O)[C@H](CC(C)C)NC(=O)CNC(=O)[C@H](CCC(N)=O)NC(=O)[C@H](CC(C)C)NC(=O)[C@@H](N)CCC(=O)O)C(=O)O` [Ccdc136] (H-ELQGLLEDEL-OH; N-terminus and C-terminus assumed), the IC50 on H-2 K^d (setting [2]) came to 4.54 µM. Further, the “CD8 T cell response of immunized mice” value in the experiment on CD8+ cells is reported as “did not elicit a detectable response at all; also recorded: did not elicit a detectable CD8 response”.
Take `CC(C)C[C@H](N)C(=O)N[C@@H](Cc1ccc(O)cc1)C(=O)N[C@@H](CC(=O)O)C(=O)N[C@H](C(=O)N[C@@H](CC(=O)O)C(=O)N[C@@H](C)C(=O)N[C@@H](C)C(=O)N[C@@H](Cc1ccccc1)C(=O)O)C(C)C` [Cpsf2, L(y/D)DVDAAF] (H-LYDVDAAF-OH): the IC50 was above 70 µM at H-2 K^d and 1.41 µM on H-2 K^d (setting [1]). Besides, in the experiment with CD8+ cells, the ELISpot entry is “+++ (21-50 spots/10^6 CD8 = +++)”.
Turning to `CC[C@H](C)[C@H](NC(=O)[C@H](C)NC(=O)[C@H](Cc1ccc(O)cc1)NC(=O)[C@H](CCC(N)=O)NC(=O)[C@@H](NC(=O)[C@H](CC(C)C)NC(=O)[C@H](Cc1ccc(O)cc1)NC(=O)[C@@H]1CCCN1)[C@@H](C)O)C(=O)N[C@H](C(=O)N[C@@H](CCSC)C(=O)N[C@@H](CC(C)C)C(=O)O)[C@@H](C)CC` [Dhx8.1] (H-PYLTQYAIIML-OH), the results for the IC50 on H-2 K^d and at H-2 K^d (setting [1]) were 1.65 µM and 2.19 µM, respectively. Further, the ELISpot entry with CD8+ cells is “+++++ (>100 spots/10^6 CD8 = +++++)”.
`CC[C@H](C)[C@H](NC(=O)[C@H](C)NC(=O)[C@H](Cc1ccc(O)cc1)NC(=O)[C@H](CCC(N)=O)NC(=O)[C@@H](NC(=O)[C@H](CC(C)C)NC(=O)[C@H](Cc1ccc(O)cc1)NC(=O)[C@@H]1CCCN1)[C@@H](C)O)C(=O)O` [Dhx8.2, P(y/D)LTQYAI] (H-PYLTQYAI-OH; N-terminus and C-terminus assumed): the ELISpot entry in the experiment with CD8+ cells is “+++++ (>100 spots/10^6 CD8 = +++++)”.
For `CC[C@H](C)[C@H](NC(=O)[C@@H](NC(=O)[C@H](C)NC(=O)[C@H](Cc1ccc(O)cc1)NC(=O)[C@H](CCC(N)=O)NC(=O)[C@@H](NC(=O)[C@H](CC(C)C)NC(=O)[C@H](Cc1ccc(O)cc1)NC(=O)[C@@H]1CCCN1)[C@@H](C)O)[C@@H](C)CC)C(=O)O` [Dhx8.3, P(y/D)LTQYAII] (H-PYLTQYAII-OH), the IC50 on H-2 K^d is 1.42 µM; on H-2 K^d (setting [1]), 0.244 µM. For the same compound, the ELISpot entry in the experiment on CD8+ cells is given as “+++++ (>100 spots/10^6 CD8 = +++++)”.
For the compound `CC[C@H](C)[C@H](NC(=O)[C@H](C)NC(=O)[C@H](Cc1ccc(O)cc1)NC(=O)[C@H](CCC(N)=O)NC(=O)[C@@H](NC(=O)[C@H](CC(C)C)NC(=O)[C@H](Cc1ccc(O)cc1)NC(=O)[C@@H]1CCCN1)[C@@H](C)O)C(=O)N[C@H](C(=O)N[C@@H](CCSC)C(=O)O)[C@@H](C)CC` [Dhx8.4] (H-PYLTQYAIIM-OH), the IC50 on H-2 K^d is 6.26 µM; at H-2 K^d (setting [1]), 6.57 µM. In addition, the ELISpot entry in the experiment on CD8+ cells is recorded as “+++ (21-50 spots/10^6 CD8 = +++)”.
As to `CC(C)C[C@H](NC(=O)[C@H](CCCNC(=N)N)NC(=O)[C@@H]1CCCN1C(=O)[C@H](CO)NC(=O)[C@H](CCCNC(=N)N)NC(=O)[C@H](Cc1ccc(O)cc1)NC(=O)[C@H](CCC(N)=O)NC(=O)[C@H](CCCNC(=N)N)NC(=O)[C@H](CCC(N)=O)NC(=O)[C@H](CC(C)C)NC(=O)[C@@H](N)CCCCN)C(=O)O` [Mast2] (H-KLQRQYRSPRL-OH), the IC50 on H-2 K^d turned out to be 8.51 µM.
Turning to `CC[C@H](C)[C@H](NC(=O)[C@H](CS)NC(=O)CNC(=O)[C@H](Cc1c[nH]cn1)NC(=O)[C@H](Cc1ccccc1)NC(=O)CN)C(=O)N[C@@H](Cc1c[nH]cn1)C(=O)N[C@@H](CCC(=O)O)C(=O)N[C@H](C(=O)N[C@@H](CC(C)C)C(=O)O)C(C)C` [Slit3] (H-GFHGCIHEVL-OH), at H-2 K^d (mutant neo-epitopes, read-out: measured IC50 / affinity for binding to K^d), the IC50 was around 50 µM.
On H-2 K^d, `CC[C@H](C)[C@H](NC(=O)[C@H](CS)NC(=O)[C@H](CC(C)C)NC(=O)[C@H](C)NC(=O)[C@H](CCC(N)=O)NC(=O)[C@H](CC(C)C)NC(=O)[C@H](CCSC)NC(=O)[C@H](Cc1ccc(O)cc1)NC(=O)[C@@H](N)CO)C(=O)N1CCC[C@H]1C(=O)O` [Tnpo3.3] (H-SYMLQALCIP-OH) had an IC50 of 0.111 µM.
`CSCC[C@H](NC(=O)[C@H](Cc1ccc(O)cc1)NC(=O)[C@@H](N)CO)C(=O)N[C@@H](CC(C)C)C(=O)N[C@@H](CCC(N)=O)C(=O)N[C@@H](C)C(=O)N[C@@H](CC(C)C)C(=O)N[C@@H](CS)C(=O)O` [Tnpo3.4, (sy/LD)MLQALC] (H-SYMLQALC-OH) registered an IC50 on H-2 K^d of 0.089 µM.
`CC(C)C[C@H](NC(=O)[C@H](CC(=O)O)NC(=O)[C@H](CC(C)C)NC(=O)[C@H](Cc1ccc(O)cc1)NC(=O)[C@@H](N)CCC(=O)O)C(=O)N[C@@H](CCC(N)=O)C(=O)N[C@H](C(=O)N[C@@H](CCC(N)=O)C(=O)O)[C@@H](C)O` [Zfp236.1, E(y/D)LDLQTQ] (H-EYLDLQTQ-OH): at H-2 K^d, the IC50 is above 70 µM.
`CC(C)C[C@H](NC(=O)[C@H](CC(=O)O)NC(=O)[C@H](CC(C)C)NC(=O)[C@H](Cc1ccc(O)cc1)NC(=O)[C@@H](N)CCC(=O)O)C(=O)N[C@@H](CCC(N)=O)C(=O)N[C@H](C(=O)N[C@@H](CCC(N)=O)C(=O)NCC(=O)O)[C@@H](C)O` [Zfp236.2, E(y/D)LDLQTQG] (H-EYLDLQTQG-OH) registered an IC50 at H-2 K^d above 70 µM.
